Entries after “also recorded” stand apart in the source; their conditions may differ.

One assay addresses CHKA (Homo sapiens, UniProt P35790). Kind of assay: Competitive affinity-based chemoproteomics (UNC0965 matrix), MCF7 lysate. Conditions: 20 μM competitor; for FC vs DMSO (log2 competition), CHKA: MCF7 lysate, n=2; for competition for CHKA binding to affinity matrix: MCF7 lysates. Type of assay: binding. On the set-up: endogenous in cells; host or cells: MCF7 whole cell lysate. How it is done: (§1) A-366 and UNC0638 were purchased from Tocris. ARIAD and V-11-07-11 were purchased from Wuxi Apptec. UNC0737 and UNC0965 were synthesised as previously described.[1] Hemicholinium-3 and pyruvate kinase/lactic dehydrogenase enzymes were purchased from Sigma Aldrich. Aqueous and organic solvents were MS-grade and acquired by Sigma Aldrich unless stated otherwise.
(§2) MDA-MB-231, MCF7 and HEK293 cells were cultured in DMEM (Gibco, #11965092) supplemented with 10% FBS. K562 were cultured in IMDM (Gibco, #12440053) supplemented with 10% FBS. HepG2 were cultured in MEM (Gibco, #11095080) supplemented with 10 % FBS. […]
cultured in McCoy’s 5A (Sigma, M8403) supplemented with 10 % FBS and 1x GlutaMAX (Gibco, #35050061). Cells were maintained at 37 °C in a humidified 5% CO2 atmosphere. Peripheral blood mononuclear cells (PBMC) were isolated from healthy blood donors by density centrifugation. […]
(§3) Chemical Proteomics Drug Pulldown
For lysate generation MCF7 cells were grown until approximately 80% confluency before being pelleted and washed with PBS. Cell pellets were subsequently lysed by addition of Buffer A (50 mM Tris pH 7.5, 0. 8% v/v NP-40, 5% v/v glycerol, 1.5 mM MgCl2, 100 mM NaCl, 25 mM NaF, 1 mM Na3VO4, 1 mM PMSF, 1 mM DTT, 10 μg mL−1 TLCK, 1 μg mL−1 Leupeptin, 1 μg mL−1 Aprotinin, 1 μg mL−1 soy bean trypsin) as previously described.[2]
For each pulldown condition, UNC0965 was coupled to 100 μL of UltraLink Immobilized Streptavidin Plus bead slurry (50% in isopropanol, GE Healthcare) to generate the affinity matrix as previously […]
described.[2] Lysates were precleared with bead slurry (100 μL) for 30 min at 4 °C and then treated with UNC0638 or UNC0737 (20 μM) or DMSO control for 30 min at 4 °C followed by incubation with affinity matrix for 2 h at 4 °C. Affinity matrices were washed with buffer A (5 mL) and proteins eluted with 100 μL of 2x Laemmli sample buffer, 100 mM DTT, in PBS and heating for 10 min at 90 °C.
Eluents (70 µL) were diluted in 0.1 M Tris (pH 7.8) to 200 µL, reduced with 5 mM DTT for 30 min at RT, and alkylated with 20 mM iodoacetamide for 30 min at RT in the dark. […]
Digested samples were analysed by nano-UPLC–MS/MS using a Dionex Ultimate 3000 nano UPLC fitted with an EASY spray column (75 μm × 500 mm, 2 μm particle size, Thermo Scientific), coupled to an Orbitrap Q Exactive instrument. […]
Raw data was processed using MaxQuant[3] version 2.0.1.0 and the reference complete human proteome FASTA file (UniProt, downloaded 05.08.21). Label Free Quantification (LFQ) and Match Between Runs were selected; Cysteine carbamidomethylation was selected as a fixed modification, and methionine oxidation and asparagine deamidation as variable modifications. Default settings for identification and quantification were used. […]

In assay [1] the test system is MCF7, MDA‐MB‐231, HEK293, HepG2, U2OS and K562 cells. Put plainly: 72 h cell viability assay (Cell Titer-Glo). Conditions: 0-50 μM. It counts as cell-based, human.
From the text: We compared morphological fingerprints of multiple parameters to assess overall biological similarity (Biol. Sim.) (Figure 1B).
as §1, §2
cultured in McCoy’s 5A (Sigma, M8403) supplemented with 10 % FBS and 1x GlutaMAX (Gibco, #35050061). Cells were maintained at 37 °C in a humidified 5% CO2 atmosphere. Peripheral blood mononuclear cells (PBMC) were isolated from healthy blood donors by density centrifugation.
MDA-MB-231, MCF7 or HEK293 cells (7.5 × 10^4 cells/mL) were each plated into x1 white 384-well polystyrene plate (Greiner Bio-One Ltd). A-366, […] and UNC0737 were directly added to each well of the cell line plates, at final concentrations 0-50 μM and incubated for 72 h at 37 °C/ 5% CO2.
Cell Titer-Glo® reagent was added to each well and total luminescence readings were performed within 15 min using the PHERAstar FSX (BMG Labtech). The cell viability results were normalised to the DMSO control and plotted using the sigmoidal dose-response (variable slope) equation in […]
as §3
For lysate generation MCF7 cells were grown until approximately 80% confluency before being pelleted and washed with PBS. […]
MDA-MB-231, […], HepG2, U2OS and K562 cells following treatment with A-366, UNC0638 and UNC0737 after 72 h measured by Cell Titer Glo assay (n=3). […]

Chain of CHKA (P35790 whole entry): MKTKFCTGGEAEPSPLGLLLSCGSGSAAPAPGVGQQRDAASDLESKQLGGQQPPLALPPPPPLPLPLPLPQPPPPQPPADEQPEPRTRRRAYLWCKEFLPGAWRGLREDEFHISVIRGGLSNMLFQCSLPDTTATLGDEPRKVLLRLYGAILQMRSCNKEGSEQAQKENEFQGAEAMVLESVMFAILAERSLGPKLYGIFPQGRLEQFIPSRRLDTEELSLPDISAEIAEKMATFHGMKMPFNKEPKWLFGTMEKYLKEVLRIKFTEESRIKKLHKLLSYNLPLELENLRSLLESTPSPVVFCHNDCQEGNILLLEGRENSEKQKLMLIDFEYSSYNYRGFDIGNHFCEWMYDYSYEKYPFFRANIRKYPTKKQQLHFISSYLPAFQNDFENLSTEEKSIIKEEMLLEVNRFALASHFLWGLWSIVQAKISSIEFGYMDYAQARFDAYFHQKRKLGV

For the compound `COc1cc2c(NC3CCN(C(C)C)CC3)nc(C3CCCCC3)nc2cc1OCCCN1CCCC1` [UNC0638], on CHKA, the “FC vs DMSO (log2 competition), CHKA” value is reported as -2.284 and the “competition for CHKA binding to affinity matrix” value was “shared off‐target”. Also, the “effect on cell viability” value in assay [1] is on record as “antiproliferative effects”.

Regarding `COc1cc2c(N(C)C3CCN(C(C)C)CC3)nc(C3CCCCC3)nc2cc1OCCCN1CCCC1` [UNC0737], at CHKA, the “FC vs DMSO (log2 competition), CHKA” value was -4.09 and the “competition for CHKA binding to affinity matrix” value was “shared off‐target; also recorded: even stronger competition”. For the same compound, in assay [1], the “effect on cell viability” value is “antiproliferative effects”.

(Values after article PMC11811597, “Phenomics‐Based Discovery of Novel Orthosteric Choline Kinase Inhibitors” (Angewandte Chemie (International Ed. in English), 2025).)
